# Data as given in patent publication US10485235B2, “Aryloxypyrimidinyl ethers as herbicides” (FMC Corporation, priority 2015, dated 2019).
# Legend:
# Type in all cases: in vivo
# [1] = test system: barnyardgrass (Echinochloa crus-galli); test: Test A preemergence, barnyardgrass; conditions: Preemergence, 0 to 100 scale (0 no effect, 100 complete control)
# From the text: (§1) Seeds of plant species selected from barnyardgrass (Echinochloa crus-galli), kochia (Kochia scoparia), ragweed (common ragweed, Ambrosia elatior), ryegrass, Italian (Italian ryegrass, Lolium multiflorum), foxtail, giant (giant foxtail, Setaria faberii), and pigweed (Amaranthus retroflexus), were planted into a blend of loam soil and sand and treated preemergence with a directed soil spray using test chemicals formulated in a non-phytotoxic solvent mixture which included a surfactant.
# (§2) At the same time, plants selected from these weed species and also wheat (Triticum aestivum), corn (Zea mays), blackgrass (Alopecurus myosuroides), and galium (catchweed bedstraw, Galium aparine), were planted in pots containing the same blend of loam soil and sand and treated with postemergence applications of test chemicals formulated in the same manner. Plants ranged in height from 2 to 10 cm and were in the one- to two-leaf stage for the postemergence treatment. Treated plants and untreated controls were maintained in a greenhouse for approximately 10 days, after which time all treated plants were compared to untreated controls and visually evaluated for injury. Plant response ratings, summarized in Table A, are based on a 0 to 100 scale where 0 is no effect and 100 is complete control. A dash (—) response means no test result.
# [2] = test system: foxtail, giant (giant foxtail, Setaria faberii); test: Test A preemergence, giant foxtail; conditions: Preemergence, 0 to 100 scale (0 no effect, 100 complete control)
# From the text: as §1, §2
# [3] = test system: pigweed (Amaranthus retroflexus); test: Test A postemergence, pigweed; conditions: postemergence, 0 to 100 scale, 0 is no effect, 100 is complete control, approximately 10 days
# From the text: as §1, §2
# [4] = test system: pigweed (Amaranthus retroflexus); test: Test A preemergence, pigweed; conditions: Preemergence, 0 to 100 scale (0 no effect, 100 complete control)
# From the text: as §1, §2
# [5] = test system: barnyardgrass (Echinochloa crus-galli); test: Test A postemergence, barnyardgrass; conditions: postemergence, 0 to 100 scale, 0 is no effect, 100 is complete control, approximately 10 days
# From the text: as §1, §2
# [6] = test system: foxtail, giant (giant foxtail, Setaria faberii); test: Test A postemergence, giant foxtail; conditions: postemergence, 0 to 100 scale, 0 is no effect, 100 is complete control, approximately 10 days
# From the text: as §1, §2
# [7] = test system: blackgrass (Alopecurus myosuroides); test: Test A postemergence, blackgrass; conditions: postemergence, 0 to 100 scale, 0 is no effect, 100 is complete control, approximately 10 days
# From the text: as §1, §2
# corn (Zea mays) = test: Test A postemergence, corn; conditions: postemergence, 0 to 100 scale, 0 is no effect, 100 is complete control, approximately 10 days
# From the text: as §1, §2
# [8] = test system: galium (catchweed bedstraw, Galium aparine); test: Test A postemergence, galium; conditions: postemergence, 0 to 100 scale, 0 is no effect, 100 is complete control, approximately 10 days
# From the text: as §1, §2
# [9] = test system: ragweed (common ragweed, Ambrosia elatior); test: Test A postemergence, ragweed; conditions: postemergence, 0 to 100 scale, 0 is no effect, 100 is complete control, approximately 10 days
# From the text: as §1, §2
# [10] = test system: wheat (Triticum aestivum); test: Test A postemergence, wheat; conditions: postemergence, 0 to 100 scale, 0 is no effect, 100 is complete control, approximately 10 days
# From the text: as §1, §2
# [11] = test system: ryegrass, Italian (Italian ryegrass, Lolium multiflorum); test: Test A preemergence, Italian ryegrass; conditions: Preemergence, 0 to 100 scale (0 no effect, 100 complete control)
# From the text: as §1, §2
# [12] = test system: ragweed (common ragweed, Ambrosia elatior); test: Test A preemergence, ragweed; conditions: Preemergence, 0 to 100 scale (0 no effect, 100 complete control)
# From the text: as §1, §2
# kochia (Kochia scoparia) [13] = test: Test A postemergence, kochia; conditions: postemergence, 0 to 100 scale, 0 is no effect, 100 is complete control, approximately 10 days
# From the text: as §1, §2
# [14] = test system: ryegrass, Italian (Italian ryegrass, Lolium multiflorum); test: Test A postemergence, Italian ryegrass; conditions: postemergence, 0 to 100 scale, 0 is no effect, 100 is complete control, approximately 10 days
# From the text: as §1, §2
# kochia (Kochia scoparia) [15] = test: Test A preemergence, kochia; conditions: Preemergence, 0 to 100 scale (0 no effect, 100 complete control)
# From the text: as §1, §2
# [16] = test system: sedge, umbrella (small-flower umbrella sedge, Cyperus difformis); test: Test B flooded paddy test, umbrella sedge; conditions: 250 g ai/ha, Flood; visual rating after 13 to 15 days; scale 0 to 100, 0 is no effect, 100 is complete control
# Protocol: (§3) Plant species in the flooded paddy test selected from rice (Oryza sativa), sedge, umbrella (small-flower umbrella sedge, Cyperus difformis), ducksalad (Heteranthera limosa), and barnyardgrass (Echinochloa crus-galli) were grown to the 2-leaf stage for testing. At time of treatment, test pots were flooded to 3 cm above the soil surface, treated by application of test compounds directly to the paddy water, and then maintained at that water depth for the duration of the test. Treated plants and controls were maintained in a greenhouse for 13 to 15 days, after which time all species were compared to controls and visually evaluated. Plant response ratings, summarized in Table B, are based on a scale of 0 to 100 where 0 is no effect and 100 is complete control. A dash (—) response means no test result.
# [17] = test system: ducksalad (Heteranthera limosa); test: Test B flooded paddy test, ducksalad; conditions: 250 g ai/ha, Flood; visual rating after 13 to 15 days; scale 0 to 100, 0 is no effect, 100 is complete control
# Protocol: as §3
# rice (Oryza sativa) = test: Test B flooded paddy test, rice; conditions: 250 g ai/ha, Flood; visual rating after 13 to 15 days; scale 0 to 100, 0 is no effect, 100 is complete control
# Protocol: as §3
# [18] = test system: barnyardgrass (Echinochloa crus-galli); test: Test B flooded paddy test, barnyardgrass; conditions: 250 g ai/ha, Flood; visual rating after 13 to 15 days; scale 0 to 100, 0 is no effect, 100 is complete control
# Protocol: as §3
SMILES,"Plant response rating, Barnyardgrass ([1]; 31 g ai/ha)","Plant response rating, Barnyardgrass ([1]; 125 g ai/ha)","Plant response rating, Foxtail, Giant ([2]; 31 g ai/ha)","Plant response rating, Foxtail, Giant ([2]; 125 g ai/ha)","Plant response rating, Pigweed ([3]; 31 g ai/ha)","Plant response rating, Pigweed ([3]; 125 g ai/ha)","Plant response rating, Pigweed ([4]; 31 g ai/ha)","Plant response rating, Pigweed ([4]; 125 g ai/ha)","Plant response rating, Barnyardgrass ([5]; 31 g ai/ha)","Plant response rating, Barnyardgrass ([5]; 125 g ai/ha)","Plant response rating, Foxtail, Giant ([6]; 31 g ai/ha)","Plant response rating, Foxtail, Giant ([6]; 125 g ai/ha)","Plant response rating, Blackgrass ([7]; 31 g ai/ha)","Plant response rating, Blackgrass ([7]; 125 g ai/ha)","Plant response rating, Corn (corn (Zea mays); 31 g ai/ha)","Plant response rating, Corn (corn (Zea mays); 125 g ai/ha)","Plant response rating, Galium ([8]; 31 g ai/ha)","Plant response rating, Galium ([8]; 125 g ai/ha)","Plant response rating, Ragweed ([9]; 31 g ai/ha)","Plant response rating, Ragweed ([9]; 125 g ai/ha)",also measured
N#Cc1cccc(Oc2ncc(Cl)cn2)c1OC/C=C/Cl [Compound 7],20,100,60,100,60,90,60,100,10,90,10,90,10,30,10,20,50,80,0,10,"Plant response rating, Wheat ([10]; 31 g ai/ha): 0; Plant response rating, Wheat ([10]; 125 g ai/ha): 10; Plant response rating, Ryegrass, Italian ([11]; 31 g ai/ha): 0; Plant response rating, Ryegrass, Italian ([11]; 125 g ai/ha): 10; Plant response rating, Ragweed ([12]; 31 g ai/ha): 0; Plant response rating, Ragweed ([12]; 125 g ai/ha): 0; Plant response rating, Kochia (kochia (Kochia scoparia) [13]; 31 g ai/ha): 90; Plant response rating, Kochia (kochia (Kochia scoparia) [13]; 125 g ai/ha): 100; Plant response rating, Ryegrass, Italian ([14]; 31 g ai/ha): 10; Plant response rating, Ryegrass, Italian ([14]; 125 g ai/ha): 50; Plant response rating, Kochia (kochia (Kochia scoparia) [15]; 31 g ai/ha): 70; Plant response rating, Kochia (kochia (Kochia scoparia) [15]; 125 g ai/ha): 100"
N#Cc1cccc(Oc2ncc(Cl)cn2)c1OCCCF [Compound 15],0,20,30,90,60,70,100,100,60,90,10,30,0,10,10,10,20,50,0,20,"Plant response rating, Wheat ([10]; 31 g ai/ha): 0; Plant response rating, Wheat ([10]; 125 g ai/ha): 0; Plant response rating, Ryegrass, Italian ([11]; 31 g ai/ha): 0; Plant response rating, Ryegrass, Italian ([11]; 125 g ai/ha): 10; Plant response rating, Ragweed ([12]; 31 g ai/ha): 0; Plant response rating, Ragweed ([12]; 125 g ai/ha): 0; Plant response rating, Kochia (kochia (Kochia scoparia) [13]; 31 g ai/ha): 50; Plant response rating, Kochia (kochia (Kochia scoparia) [13]; 125 g ai/ha): 80; Plant response rating, Ryegrass, Italian ([14]; 31 g ai/ha): 0; Plant response rating, Ryegrass, Italian ([14]; 125 g ai/ha): 10; Plant response rating, Kochia (kochia (Kochia scoparia) [15]; 31 g ai/ha): 50; Plant response rating, Kochia (kochia (Kochia scoparia) [15]; 125 g ai/ha): 100"
N#Cc1cccc(Oc2ncc(F)cn2)c1OC/C=C/Cl [Compound 36],30,80,30,90,50,50,100,100,0,70,0,50,10,50,0,20,40,50,20,40,"Plant response rating, Wheat ([10]; 31 g ai/ha): 0; Plant response rating, Wheat ([10]; 125 g ai/ha): 0; Plant response rating, Ryegrass, Italian ([11]; 31 g ai/ha): 0; Plant response rating, Ryegrass, Italian ([11]; 125 g ai/ha): 0; Plant response rating, Ragweed ([12]; 31 g ai/ha): 0; Plant response rating, Ragweed ([12]; 125 g ai/ha): 0; Plant response rating, Kochia (kochia (Kochia scoparia) [13]; 31 g ai/ha): 80; Plant response rating, Kochia (kochia (Kochia scoparia) [13]; 125 g ai/ha): 90; Plant response rating, Ryegrass, Italian ([14]; 31 g ai/ha): 0; Plant response rating, Ryegrass, Italian ([14]; 125 g ai/ha): 20; Plant response rating, Kochia (kochia (Kochia scoparia) [15]; 31 g ai/ha): 10; Plant response rating, Kochia (kochia (Kochia scoparia) [15]; 125 g ai/ha): 100"
N#CCCCOc1c(C#N)cccc1Oc1ncc(F)cn1 [Compound 37],0,20,20,50,60,70,100,100,10,20,0,10,0,10,0,20,40,60,30,50,"Plant response rating, Wheat ([10]; 31 g ai/ha): 0; Plant response rating, Wheat ([10]; 125 g ai/ha): 0; Plant response rating, Ryegrass, Italian ([11]; 31 g ai/ha): 0; Plant response rating, Ryegrass, Italian ([11]; 125 g ai/ha): 0; Plant response rating, Ragweed ([12]; 31 g ai/ha): 30; Plant response rating, Ragweed ([12]; 125 g ai/ha): 70; Plant response rating, Kochia (kochia (Kochia scoparia) [13]; 31 g ai/ha): 50; Plant response rating, Kochia (kochia (Kochia scoparia) [13]; 125 g ai/ha): 80; Plant response rating, Ryegrass, Italian ([14]; 31 g ai/ha): 0; Plant response rating, Ryegrass, Italian ([14]; 125 g ai/ha): 0; Plant response rating, Kochia (kochia (Kochia scoparia) [15]; 31 g ai/ha): 30; Plant response rating, Kochia (kochia (Kochia scoparia) [15]; 125 g ai/ha): 80"
Cc1cccc(Oc2ncc(Cl)cn2)c1OC/C=C/C(F)(F)F [Compound 58],40,90,40,90,10,30,0,100,50,70,20,70,0,30,0,10,0,30,0,0,"Plant response rating, Sedge, Umbrella [16]: 100; Plant response rating, Ducksalad [17]: 100; Plant response rating, Rice (rice (Oryza sativa)): 15; Plant response rating, Barnyardgrass [18]: 0; Plant response rating, Wheat ([10]; 31 g ai/ha): 0; Plant response rating, Wheat ([10]; 125 g ai/ha): 0; Plant response rating, Ryegrass, Italian ([11]; 31 g ai/ha): 0; Plant response rating, Ryegrass, Italian ([11]; 125 g ai/ha): 0; Plant response rating, Ragweed ([12]; 31 g ai/ha): 0; Plant response rating, Ragweed ([12]; 125 g ai/ha): 0; Plant response rating, Ryegrass, Italian ([14]; 31 g ai/ha): 0; Plant response rating, Ryegrass, Italian ([14]; 125 g ai/ha): 0; Plant response rating, Kochia (kochia (Kochia scoparia) [15]; 31 g ai/ha): 0; Plant response rating, Kochia (kochia (Kochia scoparia) [15]; 125 g ai/ha): 0"
